The source of these data is patent US11554091B2, “Composition for enhancing skin elasticity or improving skin wrinkles comprising heptahydroxyflavan as an effective ingredient” (AMOREPACIFIC CORPORATION, priority 2019, dated 2023).

The test relates to MMP-1. The test can be described thus: MMP-1 expression level by MMP-1 ELISA kit, UV-stimulated HaCaT cell culture and human fibroblast culture. Format: cell-based. Particulars: for MMP-1 production: Control = 100, UV = 260.4; for effect of inhibiting MMP-1 as compared to catechin or epicatechin: Table 1 and FIG. 3. The procedure: Then, after replacing the medium with an FBS-free DMEM medium to starve the cells, they were treated with UV on the next day.
Then, the cells were starved by replacing the medium with an FBM medium with no supplement. Then, the UV-stimulated HaCaT cell culture and the human fibroblast culture were treated with a total of 6 samples prepared by dissolving the (2R,3S)-heptahydroxyflavan and (2R,3R)-heptahydroxyflavan obtained in Example 1 in 5% DMSO to concentrations of 5 μg/mL (=about 15.5 μM), 10 μg/mL (=about 31.0 μM) and 20 μg/mL (=about 62.1 μM), respectively. As comparative examples, the cultures were treated with a total of 6 samples prepared by dissolving catechin and epicatechin in 5% DMSO at concentrations of 25 μM, 50 μM and 100 μM, respectively.
After the treatment with the samples, the expression level of MMP-1 was measured using the MMP-1 ELISA kit (R&D Systems). Separately from this, positive control groups were treated with 10 μM EGCG or 10 μM retinoic acid instead of heptahydroxyflavan in the same manner as described above.
On the technique in general: An ELISA detects its analyte on a solid surface through an enzyme-linked reagent.

In turn, `O=C(O[C@@H]1Cc2c(O)cc(O)cc2O[C@@H]1c1cc(O)c(O)c(O)c1)c1cc(O)c(O)c(O)c1` [EGCG] registered an MMP-1 production (10 μM) of 115.4.

With catechin, the MMP-1 production is, setting by setting: (25 μM) 308.2; (50 μM) 287.4; (100 μM) 257.3.

Consider `Oc1ccc([C@H]2Oc3c(O)c(O)c(O)c(O)c3C[C@@H]2O)cc1O` [APNP-054], for which the “effect of inhibiting MMP-1 as compared to catechin or epicatechin” value is “remarkably superior effect of inhibiting MMP-1”. This compound also showed an MMP-1 production (5 μg/mL) of 282.1. For the setting “10 μg/mL”, the MMP-1 production came out at 267.7. The compound further showed an MMP-1 production (20 μg/mL) of 183.2.

Take `Oc1ccc([C@H]2Oc3c(O)c(O)c(O)c(O)c3C[C@H]2O)cc1O` [APNP-055]: the “effect of inhibiting MMP-1 as compared to catechin or epicatechin” value was “remarkably superior effect of inhibiting MMP-1”. For the same compound, where the note is “5 μg/mL”, the MMP-1 production turned out to be 281.0. For the same compound, the MMP-1 production (10 μg/mL) came out at 286.6. Besides, the MMP-1 production (20 μg/mL) worked out at 160.6.

Under “10 μM”, `CC1=C(/C=C/C(C)=C/C=C/C(C)=C/C(=O)O)C(C)(C)CCC1` [RA, retinoic acid] yielded an MMP-1 production of 104.5.

For `Oc1cc(O)c2c(c1)O[C@H](c1ccc(O)c(O)c1)[C@H](O)C2` [Epicatechin, epicatechin], the MMP-1 production (25 μM) came to 294.8, the MMP-1 production (50 μM) stood at 289.1 and the MMP-1 production (100 μM) came out at 196.2.
